Measurements reported in ChEMBL document CHEMBL1152492, “DNA-targeting pyrroloquinoline-linked butenone and chalcones: synthesis and biological evaluation” (Eur J Med Chem, 2009).
pIC50: −log10 of the molar value. Calls of active or inactive are those of the source. No cut-off for these calls is given here.

Key:
Nucleic Acid = experiment: Binding affinity to salmon testes DNA assessed as occurrence of intercalative molecular complex by linear flow dichroism; assay type: nucleic-acid assay; conditions: Salmonidae
[1] = Antiproliferative activity against human JR8 cells after 72 hrs by trypan blue assay; assay type: functional, cell-based; conditions: JR8, 72 h
HL-60 = experiment: Antiproliferative activity against human HL60 cells after 72 hrs by trypan blue assay; assay type: functional, cell-based; conditions: HL-60, 72 h
HeLa = experiment: Antiproliferative activity against human HeLa cells after 72 hrs by trypan blue assay; assay type: functional, cell-based
[2] = target: DNA topoisomerase 2-alpha (Homo sapiens) (UniProt P11388); experiment: Inhibition of human recombinant topoisomerase 2 catalytic activity at 20 uM by agarose gel electrophoresis
[3] = target: DNA topoisomerase 2-alpha (Homo sapiens) (UniProt P11388); experiment: Inhibition of human recombinant topoisomerase 2 assessed as induction of linear pBR322 DNA formation at 15 uM by agarose gel electrophoresis
[4] = target: DNA topoisomerase 2-alpha (Homo sapiens) (UniProt P11388); experiment: Inhibition of human recombinant topoisomerase 2 assessed as induction of linear pBR322 DNA formation upto 20 uM by agarose gel electrophoresis
[5] = target: DNA topoisomerase 2-alpha (Homo sapiens) (UniProt P11388); experiment: Inhibition of human recombinant topoisomerase 2 assessed as induction of linear pBR322 DNA formation at 50 uM by agarose gel electrophoresis
[6] = target: DNA topoisomerase 2-alpha (Homo sapiens) (UniProt P11388); experiment: Inhibition of human recombinant topoisomerase 2-mediated relaxation of supercoiled pBR322 DNA after 60 mins by agarose gel electrophoresis
[7] = target: DNA topoisomerase 2-alpha (Homo sapiens) (UniProt P11388); experiment: Inhibition of human recombinant topoisomerase 2-mediated relaxation of supercoiled pBR322 DNA at 10 uM after 60 mins by agarose gel electrophoresis

DNA topoisomerase 2-alpha (Homo sapiens), sequence (P11388 whole entry): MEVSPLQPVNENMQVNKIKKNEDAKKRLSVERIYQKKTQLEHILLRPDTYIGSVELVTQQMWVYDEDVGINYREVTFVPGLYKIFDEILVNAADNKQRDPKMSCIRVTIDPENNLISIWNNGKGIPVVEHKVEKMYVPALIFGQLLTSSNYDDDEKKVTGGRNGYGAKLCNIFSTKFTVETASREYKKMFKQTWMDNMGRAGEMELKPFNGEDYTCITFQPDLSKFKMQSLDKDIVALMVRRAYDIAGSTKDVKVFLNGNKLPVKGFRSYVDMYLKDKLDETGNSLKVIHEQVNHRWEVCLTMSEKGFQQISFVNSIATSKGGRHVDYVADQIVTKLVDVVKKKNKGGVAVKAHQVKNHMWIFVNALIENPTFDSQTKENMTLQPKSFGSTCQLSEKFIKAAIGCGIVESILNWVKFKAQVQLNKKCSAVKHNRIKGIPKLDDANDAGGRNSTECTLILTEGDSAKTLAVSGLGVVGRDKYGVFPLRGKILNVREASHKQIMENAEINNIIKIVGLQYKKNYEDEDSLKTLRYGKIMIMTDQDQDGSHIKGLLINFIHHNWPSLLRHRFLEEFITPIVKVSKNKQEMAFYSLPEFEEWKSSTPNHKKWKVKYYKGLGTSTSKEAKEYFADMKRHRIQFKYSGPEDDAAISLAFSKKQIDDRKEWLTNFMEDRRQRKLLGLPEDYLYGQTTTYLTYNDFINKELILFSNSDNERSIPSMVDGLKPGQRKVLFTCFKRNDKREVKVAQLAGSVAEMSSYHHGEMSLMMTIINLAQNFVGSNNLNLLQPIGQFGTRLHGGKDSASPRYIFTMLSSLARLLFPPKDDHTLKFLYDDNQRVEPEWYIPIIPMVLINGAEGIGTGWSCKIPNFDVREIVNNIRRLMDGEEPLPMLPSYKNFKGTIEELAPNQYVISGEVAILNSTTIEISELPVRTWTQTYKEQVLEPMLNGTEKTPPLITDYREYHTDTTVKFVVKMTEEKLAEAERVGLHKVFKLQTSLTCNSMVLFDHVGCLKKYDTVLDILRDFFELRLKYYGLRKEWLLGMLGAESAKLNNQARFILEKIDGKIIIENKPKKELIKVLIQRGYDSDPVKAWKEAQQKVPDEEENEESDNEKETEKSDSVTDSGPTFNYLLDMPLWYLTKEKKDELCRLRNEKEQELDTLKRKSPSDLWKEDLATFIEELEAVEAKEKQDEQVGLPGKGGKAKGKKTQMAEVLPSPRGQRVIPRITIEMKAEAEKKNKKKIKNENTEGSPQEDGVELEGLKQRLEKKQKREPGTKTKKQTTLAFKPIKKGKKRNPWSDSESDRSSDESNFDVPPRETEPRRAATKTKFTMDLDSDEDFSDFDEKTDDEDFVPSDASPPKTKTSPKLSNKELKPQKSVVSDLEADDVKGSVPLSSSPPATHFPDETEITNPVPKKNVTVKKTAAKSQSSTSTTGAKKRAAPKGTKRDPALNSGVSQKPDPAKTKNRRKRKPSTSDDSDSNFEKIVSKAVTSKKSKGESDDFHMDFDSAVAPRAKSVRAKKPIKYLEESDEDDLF

| SMILES | Activity (Nucleic Acid) | pIC50 [1] | pIC50 (HL-60) | pIC50 (HeLa) | Activity [2] | Activity [3] | Activity [4] | Activity [5] | Activity [6] | Activity [7] |
| --- | --- | --- | --- | --- | --- | --- | --- | --- | --- | --- |
| O=C(/C=C/c1ccc[nH]1)c1ccccc1 | inactive | < 4.70 | < 4.70 | < 4.70 | – | – | – | – | – | – |
| O=C(/C=C/c1ccc([N+](=O)[O-])cc1)c1ccccc1 | inactive | 5.11 | 5.22 | < 4.70 | inactive | – | – | – | – | – |
| O=C(/C=C/c1ccc[nH]1)c1ccc(Nc2ccnc3ccc4[nH]ccc4c23)cc1 | – | 5.48 | 5.25 | 4.74 | – | – | – | – | – | – |
| COc1cc(NS(C)(=O)=O)ccc1Nc1c2ccccc2nc2ccccc12 | Active | – | – | – | – | Active | – | – | – | – |
| CC(=O)/C=C/c1ccccc1 [BUTENONE] | inactive | – | – | – | – | – | – | – | – | – |
| CC(=O)/C=C/c1ccc(Nc2ccnc3ccc4[nH]ccc4c23)cc1 | Active | 5.80 | 5.64 | 5.15 | inactive | – | inactive | inactive | Dose-dependent effect | – |
| O=C(/C=C/c1ccc([N+](=O)[O-])cc1)c1ccc(Nc2ccnc3ccc4[nH]ccc4c23)cc1 | – | 5.92 | 5.36 | 4.98 | Active | – | inactive | inactive | Dose-dependent effect | Active |
| Cc1c2ccncc2c(C)c2c1[nH]c1ccccc12 [ELLIPTECINE] | Active | 5.96 | – | – | – | – | – | – | – | – |
| O=C(/C=C/c1cccs1)c1ccc(Nc2ccnc3ccc4[nH]ccc4c23)cc1 | – | 5.68 | 5.49 | 5.28 | – | – | – | – | – | – |
